For 26 compounds, EC50 and IC50 results are on record in patent publication US9926304B2, “1-(arylmethyl)quinazoline-2,4(1H,3H)-diones as PARP inhibitors and the use thereof” (Impact Therapeutics, Inc., priority 2011, dated 2018).

Assay [1] deals with Human breast cancer cell line T47D. The assay is described as follows: Cell based caspase-3 activity assay: potentiation of MMS induced apoptosis. The note with it: T47D cells, 11.1 μg/ml MMS, 24 hours, intracellular caspase-3 activity, read-out: EC50 (nM), potentiation of the apoptosis inducing activity of MMS. The source says: Determination of the synergistic potentiation effect of 1-(3-(4-(pyrimidin-2-yl)piperazine-1-carbonyl)benzyl)quinazoline-2,4(1H,3H)-dione and analogs on MMS induced apoptosis using a cell based caspase-3 activity assay
Human breast cancer cell line T47D was used to determine the potentiation effect of PARP inhibitors on the apoptosis inducing activity of DNA damaging anticancer drugs such as MMS. Intracellular caspase-3 activity was used to measure cell apoptosis. The dose response effect of MMS to induce intracellular caspase activity was carefully titrated and the concentration that only induces a minimal level of caspase activity was used to test the potentiation effect of PARP inhibitors. Briefly, T47D cells were grown in DMEM/F12 cell culture medium (Hyclone) supplemented with 0.2 U/ml insulin (Genview) and 10% FBS (Hyclone). A day before experiment, 20000 of T47D cells were seeded to each well of a 96-well cell culture plate and maintained at 37° C. and 5% CO2 in a cell culture incubator overnight. On the day of experiment, cell culture medium was removed. One hundred and eighty μl of fresh medium containing 11.1 μg/ml MMS was added to each well and followed by 20 μl medium containing 10 folds of the concentrations of experimental drugs or reference compounds (ADZ2281 and ABT-888). The serial dilutions of the compounds to be tested and the reference compounds were made in a 1:3 and 1:10 fashion in DMSO. The 10-fold compound solutions were made by mixing 10 μl DMSO serial dilution solutions with 90 μl fresh growth medium. Twenty four hours later, the cells in the 96-well plates were centrifuged at 1000 g for 5 min and the supernatants were removed. Fifty μl lysis buffer (10 mM Tris, pH7.5, 0.1M NaCl, 1 mM EDTA, 0.01% Triton X-100) was added to each well and the plates were shaked horizontally for 30 min at 4° C. After centrifugation at 1000 g at 4° C. for 10 min, 20 μl of supernatant was transferred from each well to a corresponding well in a 384-well black plate. Twenty μl of buffer (20 mM PIPES, pH7.4, 4 mM EDTA and 0.2% CHAPS) containing 20 μM fluorescent caspase-3 substrate ((Ac-DEVD)2-R110, AnaSpec Cat #60304-5) was added to each well afterwards. The plates were shaked to uniformly mix the wells and incubated at 37° C. for 3 h. The fluorescence intensity was measured using the following wavelength: ex: 496 nm, em: 520 nm using a fluorescence plate reader (Varioskan Flash, Thermo Fisher Scientific). The caspase-3 activity induced by the compounds was expressed as a relative fluorescence unit (RFU). The obtained fluorescence readings were analyzed using a commercial graphic software (GraphPad Prism 5) and plotted against the Log value of the compound concentrations. The EC50 values were obtained by fitting the data points with the equation of Y (fluorescence reading)=minimal fluorescence reading+(maximal fluorescence reading−minimal fluorescence reading)/(1+10^(Log EC50−Log C)), where C is the concentration of the testing compound.
The synergistic potentiation effect of compounds on MMS induced apoptosis in T47D cells is expressed as EC50 values and listed in Table 2.

Assay [2] deals with SW620 human colorectal cancer cells. The assay is described as follows: MTT based cell viability assay: potentiation of the growth inhibiting activity of MMS.
The mark [3] stands for this setting: read-out: IC50 (nM), potentiation of the growth inhibiting activity of MMS, SW620 cells, 1.7 μg/ml MMS, 5 days (120 hours), MTT.
[4] abbreviates: Homo sapiens, SW-620, 120 h, read-out: IC50 (nM), potentiation of the growth inhibiting activity of MMS, SW620 cells, 1.7 μg/ml MMS, 5 days (120 hours), MTT.

Like-named read-outs stand apart in the source and are kept apart here. Some results are limits rather than exact numbers.

“1-(3-(4-(Cyclopentylcarbonyl)piperazine-1-carbonyl)-4-fluorobenzyl)-6-fluoroquinazoline-2,4(1H,3H)-dione [Example 148]”: in assay [1], the EC50 is 2.3 nM. Besides, in assay [2] (setting [3]), the IC50 came out at 2.1 nM.

Consider “1-(3-(4-(Cyclopentylcarbonyl)piperazine-1-carbonyl)-6-fluorobenzyl)-6-fluoroquinazoline-2,4(1H,3H)-dione [Example 153]”, for which the EC50 in assay [1] is 2 nM. Besides, in assay [2] (setting [3]), the IC50 was found to be 9.2 nM.

For the compound “1-(3-(4-Phenylpiperidine-1-carbonyl)benzyl)quinazoline-2,4(1H,3H)-dione [Example 18]”, in assay [1], the EC50 is over 10000 nM. For the same compound, in assay [2] (setting [3]), the IC50 is over 10000 nM.

For “1-(3-(5-Bromopyrimidin-2-aminocarbamoyl)-4-fluorobenzyl)-5-fluoroquinazoline-2,4(1H,3H)-dione [Example 205]”, the EC50 in assay [1] was over 10000 nM. Besides, the IC50 in assay [2] (setting [3]) is over 10000 nM.

Consider `C[C@]1(c2nc3c(C(N)=O)cccc3[nH]2)CCCN1` [ABT-888, reference compound], for which the EC50 in assay [1] came out at 3490 nM. Also, the IC50 in assay [2] (setting [3]) is 2640 nM.

`COC(=O)c1cccc(Cn2c(=O)[nH]c(=O)c3ccccc32)c1` [Example 1, 1-(3-Methoxycarbonylbenzyl)quinazoline-2,4(1H,3H)-dione]: the 50% effective concentration (EC50) in assay [1] (Homo sapiens, T47D, 24 h) is over 10000 nM. Further, in assay [2] (setting [4]), the IC50 is over 10000 nM.

Consider `O=C(O)c1cccc(Cn2c(=O)[nH]c(=O)c3ccccc32)c1` [Example 2, 1-(3-Carboxybenzyl)quinazoline-2,4(1H,3H)-dione], for which, in assay [1] (Homo sapiens, T47D, 24 h), the EC50 is over 10000 nM. In addition, the IC50 in assay [2] (setting [4]) is over 10000 nM.

For the compound `O=C(c1cccc(Cn2c(=O)[nH]c(=O)c3ccccc32)c1)N1CCN(C2CCCCC2)CC1` [Example 5, 1-(3-(4-Cyclohexylpiperazine-1-carbonyl)benzyl)quinazoline-2,4(1H,3H)-dione], in assay [1] (Homo sapiens, T47D, 24 h), the EC50 was determined as 450 nM. Further, the IC50 in assay [2] (setting [4]) worked out at 5360 nM.

As to `O=C(c1cccc(Cn2c(=O)[nH]c(=O)c3ccccc32)c1)N1CCN(c2ccc3nncn3n2)CC1` [Example 6, 1-(3-(4-([1,2,4]Triazolo[4,3-b]pyridazin-6-yl)piperazine-1-carbonyl)benzyl)quinazoline-2,4(1H,3H)-dione], the EC50 in assay [1] (Homo sapiens, T47D, 24 h) turned out to be 2520 nM. Also, in assay [2] (setting [4]), the IC50 turned out to be 7030 nM.

For `CCN1CCN(C(=O)c2cccc(Cn3c(=O)[nH]c(=O)c4ccccc43)c2)CC1` [Example 7, 1-(3-(4-Ethylpiperazine-1-carbonyl)benzyl)quinazoline-2,4(1H,3H)-dione], the EC50 in assay [1] (Homo sapiens, T47D, 24 h) was 2660 nM. Besides, the IC50 in assay [2] (setting [4]) was determined as 5270 nM.

With `O=C(c1ccc(F)cc1)N1CCN(C(=O)c2cccc(Cn3c(=O)[nH]c(=O)c4ccccc43)c2)CC1` [Example 9, 1-(3-(4-(4-Fluorobenzoyl)piperazine-1-carbonyl)benzyl)quinazoline-2,4(1H,3H)-dione], the EC50 in assay [1] (Homo sapiens, T47D, 24 h) was 426 nM. In addition, in assay [2] (setting [4]), the IC50 was 500 nM.

Consider `O=C(c1ccc(Cl)cc1)N1CCN(C(=O)c2cccc(Cn3c(=O)[nH]c(=O)c4ccccc43)c2)CC1` [Example 10, 1-(3-(4-(4-Chlorobenzoyl)piperazine-1-carbonyl)benzyl)quinazoline-2,4(1H,3H)-dione], for which the EC50 in assay [1] (Homo sapiens, T47D, 24 h) was determined as 400 nM. Moreover, the IC50 in assay [2] (setting [4]) was 439 nM.

On to `COc1ccc(C(=O)N2CCN(C(=O)c3cccc(Cn4c(=O)[nH]c(=O)c5ccccc54)c3)CC2)cc1` [Example 12, 1-(3-(4-(4-Methoxybenzoyl)piperazine-1-carbonyl)benzyl)quinazoline-2,4(1H,3H)-dione], for which the EC50 in assay [1] (Homo sapiens, T47D, 24 h) turned out to be 318 nM. Besides, in assay [2] (setting [4]), the IC50 was 533 nM.

With `O=C(c1cccc(Cn2c(=O)[nH]c(=O)c3ccccc32)c1)N1CCN(C(=O)C2CCOCC2)CC1` [Example 13, 1-(3-(4-(Tetrahydro-2H-pyran-4-carbonyl)piperazine-1-carbonyl)benzyl)quinazoline-2,4(1H,3H)-dione], the EC50 in assay [1] (Homo sapiens, T47D, 24 h) was determined as 6600 nM. The IC50 in assay [2] (setting [4]) amounted to 727 nM.

Turning to `CCS(=O)(=O)N1CCN(C(=O)c2cccc(Cn3c(=O)[nH]c(=O)c4ccccc43)c2)CC1` [Example 16, 1-(3-(4-(Ethylsulfonyl)piperazine-1-carbonyl)benzyl)quinazoline-2,4(1H,3H)-dione], in assay [1] (Homo sapiens, T47D, 24 h), the EC50 was 9210 nM. In addition, in assay [2] (setting [4]), the IC50 was determined as 7260 nM.

On to `CC(=O)N1CCN(C(=O)c2cccc(Cn3c(=O)[nH]c(=O)c4ccccc43)c2)CC1` [Example 17, 1-(3-(4-Acetylpiperazine-1-carbonyl)benzyl)quinazoline-2,4(1H,3H)-dione], for which, in assay [1] (Homo sapiens, T47D, 24 h), the half-maximal effective concentration (EC50) stood at 5020 nM. Besides, the IC50 in assay [2] (setting [4]) was over 10000 nM.

Consider `O=C(c1cccc(Cn2c(=O)[nH]c(=O)c3ccccc32)c1)N1CCN(c2ccccc2)CC1` [Example 19, 1-(3-(4-Phenylpiperazine-1-carbonyl)benzyl)quinazoline-2,4(1H,3H)-dione], for which the EC50 in assay [1] (Homo sapiens, T47D, 24 h) is over 10000 nM. In addition, the IC50 in assay [2] (setting [4]) is over 10000 nM.

Regarding `COC(=O)c1cc(Cn2c(=O)[nH]c(=O)c3ccccc32)ccc1F` [Example 21, 1-(4-Fluoro-3-methoxycarbonylbenzyl)quinazoline-2,4(1H,3H)-dione], the EC50 in assay [1] (Homo sapiens, T47D, 24 h) was found to be 5800 nM. Also, in assay [2] (setting [4]), the IC50 is over 10000 nM.

Take `O=C(O)c1cc(Cn2c(=O)[nH]c(=O)c3ccccc32)ccc1F` [Example 22, 1-(3-Carboxy-4-fluorobenzyl)quinazoline-2,4(1H,3H)-dione]: in assay [1] (Homo sapiens, T47D, 24 h), the EC50 is over 10000 nM. Further, in assay [2] (setting [4]), the IC50 is over 10000 nM.

Turning to `O=C(c1cccc(Cn2c(=O)[nH]c(=O)c3ccccc32)c1)N1CCC(N2CCCCC2)CC1` [Example 28, 1-(3-(4-(Piperidin-1-yl)piperidine-1-carbonyl)benzyl)quinazoline-2,4(1H,3H)-dione], the EC50 in assay [1] (Homo sapiens, T47D, 24 h) was 5890 nM. For the same compound, in assay [2] (setting [4]), the IC50 was over 10000 nM.

In the case of `O=C(c1cccc(Cn2c(=O)[nH]c(=O)c3ccccc32)c1)N1CCN(c2ccncc2)CC1` [Example 29, 1-(3-(4-(Pyridin-4-yl)piperazine-1-carbonyl)benzyl)quinazoline-2,4(1H,3H)-dione], the EC50 in assay [1] (Homo sapiens, T47D, 24 h) is over 10000 nM. For the same compound, the IC50 in assay [2] (setting [4]) is over 10000 nM.

As to `O=C(c1cccc(Cn2c(=O)[nH]c(=O)c3ccccc32)c1)N1CCC(c2noc3cc(F)ccc23)CC1` [Example 31, 1-(3-(4-(6-Fluorobenzo[d]isoxazol-3-yl)piperidine-1-carbonyl)benzyl)quinazoline-2,4(1H,3H)-dione], the EC50 in assay [1] (Homo sapiens, T47D, 24 h) worked out at 112 nM. In addition, the IC50 in assay [2] (setting [4]) came out at 2600 nM.

For `O=C(c1cccc(Cn2c(=O)[nH]c(=O)c3ccccc32)c1)N1CCN(C(=O)c2cccs2)CC1` [Example 32, 1-(3-(4-(Thiophene-2-carbonyl)piperazine-1-carbonyl)benzyl)quinazoline-2,4(1H,3H)-dione], the EC50 in assay [1] (Homo sapiens, T47D, 24 h) was 96 nM. The IC50 in assay [2] (setting [4]) is 106 nM.

Turning to `O=C(c1cccc(Cn2c(=O)[nH]c(=O)c3ccccc32)c1)N1CCN(C(=O)c2ccco2)CC1` [Example 33, 1-(3-(4-(Furan-2-carbonyl)piperazine-1-carbonyl)benzyl)quinazoline-2,4(1H,3H)-dione], in assay [1] (Homo sapiens, T47D, 24 h), the EC50 amounted to 96 nM. The IC50 in assay [2] (setting [4]) came out at 130 nM.

On to `O=C(c1cc(Cn2c(=O)[nH]c(=O)c3cc(Cl)ccc32)ccc1F)N1CCN(C(=O)C2CC2)CC1` [Example 122, 6-Chloro-1-(3-(4-(cyclopropylcarbonyl)piperazine-1-carbonyl)-4-fluorobenzyl)quinazoline-2,4(1H,3H)-dione], for which, in assay [1] (Homo sapiens, T47D, 24 h), the EC50 was determined as 8.4 nM.

As for `O=C(NC1CCCCC1)N1CCN(C(=O)c2cccc(Cn3c(=O)[nH]c(=O)c4ccccc43)c2)CC1` [Example 191, 1-(3-(4-(Cyclohexylcarbamoyl)piperazine-1-carbonyl)benzyl)quinazoline-2,4(1H,3H)-dione], the IC50 in assay [2] (setting [4]) was 192 nM.

In general, EC50 refers to the concentration at which the effect is half-maximal.
